Each structure is given as a SMILES string. Like-named read-outs stand apart in the source and are kept apart here.

What is called inhibition is the change of the read-out against control, counted positive when it falls.

The experiment concerns the target T1, 5-lipoxygenase (Homo sapiens, UniProt P09917).
T1 construct: Human polymorphonuclear leukocytes (neutrophils) were obtained from normal healthy volunteers; endogenous in cells; host or cells: human blood neutrophils from healthy volunteers
T1 sequence (P09917 1-674): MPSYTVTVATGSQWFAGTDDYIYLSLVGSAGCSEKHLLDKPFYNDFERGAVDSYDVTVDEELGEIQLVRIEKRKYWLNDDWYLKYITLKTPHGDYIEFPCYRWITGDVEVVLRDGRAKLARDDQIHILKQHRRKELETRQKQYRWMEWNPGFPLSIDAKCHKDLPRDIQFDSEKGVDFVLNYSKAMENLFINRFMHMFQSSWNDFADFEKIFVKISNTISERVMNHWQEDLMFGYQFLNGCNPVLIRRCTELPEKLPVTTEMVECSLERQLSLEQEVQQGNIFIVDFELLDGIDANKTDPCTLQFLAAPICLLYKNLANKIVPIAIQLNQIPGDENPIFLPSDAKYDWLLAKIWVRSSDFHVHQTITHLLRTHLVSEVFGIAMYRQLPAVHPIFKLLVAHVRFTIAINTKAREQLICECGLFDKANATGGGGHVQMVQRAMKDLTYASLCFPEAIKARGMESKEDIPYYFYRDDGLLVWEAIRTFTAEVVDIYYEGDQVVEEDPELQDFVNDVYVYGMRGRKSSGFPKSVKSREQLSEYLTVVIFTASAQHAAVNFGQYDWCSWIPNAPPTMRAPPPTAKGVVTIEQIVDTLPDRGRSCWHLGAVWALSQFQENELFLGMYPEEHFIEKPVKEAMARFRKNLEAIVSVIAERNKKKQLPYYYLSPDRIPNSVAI
Put plainly: 5-Lipoxygenase assay with human neutrophils. The following applies: 5 min, Human PMN; for inhibition at 15 µM: dose 15 μm (μM). Format: cell-based. The method, then: Human polymorphonuclear leukocytes (neutrophils) were obtained from normal healthy volunteers by venipuncture and collected with heparin anticoagulant. Neutrophils were isolated by Dextran/Ficol sedimentation as described (Billah et al., J. Biol. Chem. 260, 6899-6906 (1985)). In brief, 30 ml of blood was mixed with 5 ml of dextran (Sigma) solution and kept at 37° C. for 30 min. The upper white cell-rich layer was removed and 10 ml was layered on 9 ml of Ficol-Paque solution (Pharmacia) and centrifuged at 280 xg for 10 min. at 5° C. The supernatant was removed and the neutrophil pellet was resuspended in HEPES buffer containing 25 mM N-2-hydroxyethylpiperazine-N^1 -2-ethanesulfonic acid HEPES, 125 mM NaCl, 2.5 mM KCl, 0.7 mM MgCl2, […] 10 mM glucose at pH 7.4. The red cells in the suspension were lysed by hypotonic shock. The neutrophils were washed by centrifugation in HEPES buffer two times and finally resuspended at a concentration of 20×10^6 cells/ml in the presence of 1 mM CaCl2.
Neutrophils (0.2 ml of suspension) were preincubated with dimethylsulfoxide (DMSO) vehicle with or without test compound (1 ul) for 4 minutes then incubated for 5 minutes with [^14 C] arachidonic acid (Amersham, 59 Ci/mole) at a 9 uM final concentration, and the calcium ionophore A23187 (Calbiochem) at a 1 uM final concentration. These stimulants were added in 10 ul of water:ethanol (9:1). The reaction was stopped by addition of methanol (0.4 ml), and cellular debris was removed by centrifugation. Aliquots (100 ul) of the incubations were run on a Waters two pump HPLC system fitted with a DuPont Zorbax ODS, 5u, […] Reliance Cartridge column and C18 "Guard Pak". The column was initially eluted at 2 ml/min with 80% of the mixture water:methanol:acetic acid (46:54:0.08) containing 1 mM EDTA adjusted to pH 6.0 with ammonium hydroxide (Pump A) and 20% methanol (Pump B). At 10 minutes, a linear gradient to reach 100% methanol (Pump B) at 27 minutes was established. Between 27 and 28 minutes, methanol was exchanged for the initial eluting solvent and by 35 minutes the column had been reequilibrated for the next sample. The effluent was analyzed by a continuous flow radioactivity monitor (model ROMONA-D) interfaced with a Hewlett Packard Lab Automation System for quantitation of radioactive products. These were predominantly leukotriene B4 (LTB4) which eluted at 7 minutes, and 5-hydroxyeicosatetraenoic acid (5-HETE) which eluted at 20 minutes.

As to `COc1cc(OC)c2c(c1)C(C)(C)C(c1ccc(OC)c(OC)c1)CC2=NNC(=O)c1ccccc1` (stereo not drawn), the inhibition at 15 µM (read-out: % Inhibition 5-HETE) came out at 22% and the inhibition at 15 µM (read-out: % Inhibition LTB) was found to be 38%.

For `COc1cc(OC)c2c(c1)C(C)(C)C(c1ccc(OC)c(OC)c1)CC2=NNC(=O)c1ccccc1O` (stereo not drawn), the inhibition at 15 µM amounted to 41% (read-out: % Inhibition 5-HETE) and 50% (read-out: % Inhibition LTB). Turning to `COc1cc(OC)c2c(c1)C(C)(C)C(c1ccc(OC)c(OC)c1)CC2=NNC(C)=O` (stereo not drawn), the inhibition at 15 µM (read-out: % Inhibition 5-HETE) turned out to be 0% and the inhibition at 15 µM (read-out: % Inhibition LTB) stood at 0%.

As for `CON=C1CC(c2ccc(OC)c(OC)c2)C(C)(C)c2cc(OC)cc(OC)c21` (stereo not drawn), the inhibition at 15 µM is, setting by setting: (read-out: % Inhibition 5-HETE) 55%; (read-out: % Inhibition LTB) 47%.

Turning to `COc1cc(OC)c2c(c1)C(C)(C)C(c1ccc(OC)c(OC)c1)CC2=NOC(C)=O` (stereo not drawn), the inhibition at 15 µM (read-out: % Inhibition 5-HETE) worked out at 13% and the inhibition at 15 µM (read-out: % Inhibition LTB) was determined as 18%.

Take `CC1=C(c2ccc(O)c(O)c2)C(C)(C)c2cc(O)cc(O)c2C1=O`: where the note is “read-out: % Inhibition 5-HETE”, the inhibition at 5 µM stood at 13% and the inhibition at 15 µM turned out to be 90%. Besides, where the note is “read-out: % Inhibition LTB”, the inhibition at 5 µM came out at 46% and the inhibition at 15 µM turned out to be 96%. For `COc1cc(OC)c2c(c1)C(C)(C)C(c1ccc(OC)c(OC)c1)CC2=NOC(=O)C(C)(C)C` (stereo not drawn), the inhibition at 15 µM (read-out: % Inhibition 5-HETE) is 0%. Take `COc1cc(OC)c2c(c1)C(C)(C)C(c1ccc(OC)c(OC)c1)CC2Sc1ccc(Cl)cc1` (stereo not drawn): for the setting “read-out: % Inhibition 5-HETE”, the inhibition at 15 µM came to 36%. The same measure, in the same setting: for `COc1cc(OC)c2c(c1)C(C)(C)C(c1ccc(OC)c(OC)c1)CC2=NN` (stereo not drawn) the value was 35%. On to `C=CCC1C(=O)c2c(OC)cc(OC)cc2C(C)(C)C1c1ccc(OC)c(OC)c1` (stereo not drawn), for which the inhibition at 15 µM (read-out: % Inhibition LTB) was found to be 0%. Take `CCOC(=O)C1C(=O)c2c(OC)cc(OC)cc2C(C)(C)C1c1ccc(OC)c(OC)c1` (stereo not drawn): the inhibition at 15 µM reads like this: (read-out: % Inhibition 5-HETE) 69%; (read-out: % Inhibition LTB) 89%. Turning to `COc1ccc2c(c1)C(C)(C)C(c1ccc(OC)c(OC)c1)=CC2=O`, where the note is “read-out: % Inhibition 5-HETE”, the inhibition at 15 µM was found to be 79%. Same read-out and setting: for `COc1ccc(C2CC(=O)c3c(OC)cccc3C2(C)C)cc1OC` (stereo not drawn) the value was 23%; for `COc1ccc(C2=CC(=O)c3c(OC)cccc3C2(C)C)cc1OC`, 28%; for `COc1cc(O)c2c(c1)C(C)(C)C(c1ccc(OC)c(OC)c1)CC2=O` (stereo not drawn), 0%. Still for that read-out and setting: for `CC1(C)c2cc(O)cc(O)c2C(=NO)CC1c1cc(O)cc(O)c1` (stereo not drawn) the value was 57%. With `COc1cc(OC)cc(C2=CC(=O)c3c(OC)cc(OC)cc3C2(C)C)c1`, the inhibition at 15 µM stood at 0% (read-out: % Inhibition 5-HETE) and 0% (read-out: % Inhibition LTB). `CC1(C)C(c2cc(O)cc(O)c2)=CC(=O)c2c(O)cc(O)cc21`: the inhibition at 15 µM (read-out: % Inhibition 5-HETE) turned out to be 11%.

Turning to `COc1cc(O)c2c(c1)C(C)(C)C(c1cc(O)cc(O)c1)CC2=O` (stereo not drawn), for the setting “read-out: % Inhibition 5-HETE”, the inhibition at 15 µM was 75%. Same read-out and setting: with `CC1(C)c2cc(O)cc(O)c2C(=O)CC1c1cccc(O)c1` (stereo not drawn) the figure was 23%. The same measure, in the same setting: with `COc1cc(OC)c2c(c1)C(C)(C)C(c1ccc(OC)c(OC)c1)CC(Sc1ccccc1)C2=O` (stereo not drawn) the figure was 61%; with `COc1cc(OC)c2c(c1)C(C)(C)C(c1ccc(OC)c(OC)c1)C=CC2=O` (stereo not drawn), 48%. On to `COc1ccc(C2CC(=O)Cc3c(OC)cccc3C2(C)C)cc1OC` (stereo not drawn) [8-(3,4-dimethoxyphenyl)-9,9-dimethyl-4-methoxy-5,7,8,9-tetrahydro-6H-benzocyclohepten-6-one], for which the inhibition at 15 µM by setting is: (read-out: % Inhibition 5-HETE) 61%; (read-out: % Inhibition LTB) 22%.

Turning to `COc1cc(OC)cc(C2CCC(=O)c3c(OC)cc(OC)cc3C2(C)C)c1` (stereo not drawn) [8-(3,5-dimethoxyphenyl)-6,7,8,9-tetradydro-2,4-dimethoxy-9,9-dimethyl-5H-benzocyclohepten-5-one], the inhibition at 15 µM (read-out: % Inhibition 5-HETE) was found to be 46% and the inhibition at 15 µM (read-out: % Inhibition LTB) was 46%. Take `COc1cc(OC)cc(C2=CC(=O)c3c(cc(OC)c(OC)c3OC)C2(C)C)c1` [drawing 101 [R3/R4=O; E,G,P,L,K=OCH3; db yes]]: the inhibition at 15 µM was 7% (read-out: % Inhibition 5-HETE) and 1% (read-out: % Inhibition LTB). For the compound `COc1cc(OC)c2c(c1)C(C)(C)CC(c1ccccc1)C2=O` (stereo not drawn) [drawing 102 [A=C6H5; B=H]], the inhibition at 15 µM (read-out: % Inhibition 5-HETE) came to 64%.

These data come from patent publication US5225436A, “Aryl substituted naphthalene derivatives” (Schering Corporation, priority 1991, dated 1993).
